Measured values: article PMC3762585 (Chemical & pharmaceutical bulletin, 2012)
Read-outs that look alike come from different tables or passages of the source.

Columns and labels:
[1] = test system: JMAR, MDA-1986, B16F10, SKMEL-28 and MRC-5 cells; test: MTS viability; type: cell-based; conditions: for IC50: read-out: IC50 values, range over the cells tested; for anti-proliferative activity (cytotoxic effect): tested with a concentration of 20 μM, all five cell lines
[2] = test system: B16F10; test: MTS viability; conditions: Mus musculus, B16-F10, read-out: Cytotoxicity IC50 B16F10
[3] = test system: JMAR; test: MTS viability; conditions: Homo sapiens, read-out: Cytotoxicity IC50 JMAR
[4] = in vitro; conditions: human
[5] = test system: MDA-1986; test: MTS viability; conditions: Homo sapiens, MDA1986, read-out: Cytotoxicity IC50 MDA-1986
[6] = test system: SKMEL-28; test: MTS viability; conditions: Homo sapiens, SK-MEL-28, read-out: Cytotoxicity IC50 SKMEL-28
[7] = test system: JMAR
[8] = test system: B16F10
[9] = test system: MDA-1986
[10] = test system: SKMEL-28
[11] = test system: MRC-5

Compound	IC50 [1]	IC50 [2]	IC50 [3]	IC50 [4]	IC50 [5]	IC50 [6]	anti-proliferative activity (cytotoxic effect) [1]	IC50 [7]	IC50 [8]	IC50 [9]	IC50 [10]	IC50 [11]
CC1=C(C)C(=O)O[C@@H]([C@@H](C)[C@H]2CC[C@H]3[C@@H]4C[C@H]5O[C@]56[C@@H](O)C=CC(=O)[C@]6(CO)[C@H]4CC[C@]23C)C1 [Withalongolide B 5, withalongolide B]	150 to 12700 nM	260 ± 70 nM	250 ± 140 nM	380 ± 30 nM	1700 ± 80 nM	3300 ± 480 nM	–	–	–	–	–	–
CC1=C(CO)C(=O)O[C@@H]([C@@H](C)[C@H]2CC[C@H]3[C@@H]4C[C@H]5O[C@]56[C@@H](O)C=CC(=O)[C@]6(C)[C@H]4CC[C@]23C)C1 [Withaferin A 6, withaferin A]	150 to 12700 nM	270 ± 40 nM	–	320 ± 60 nM	860 ± 250 nM	3500 ± 150 nM	–	–	–	–	–	–
19-hydroxy viscosalactone B [Withalongolide P 2]	–	–	–	–	–	–	inactive	–	–	–	–	–
Withalongolide O 4,7-Diacetate [Withalongolide O 4,7-diacetate 1a]	–	–	–	–	–	–	–	830 ± 140 nM	690 ± 140 nM	540 ± 70 nM	180 ± 30 nM	530 ± 120 nM
CC1=C(CO)C(=O)O[C@@H]([C@@H](C)[C@H]2CC[C@H]3[C@@H]4C[C@H]5O[C@]56[C@@H](O)[C@@H](O)CC(=O)[C@]6(C)[C@H]4CC[C@]23C)C1 [viscosalactone B 3, viscosalactone B]	–	> 20000 nM	> 20000 nM	> 20000 nM	> 20000 nM	> 20000 nM	inactive	–	–	–	–	–
